From ChEMBL document CHEMBL5380853, “Lead Optimization of Androgen Receptor-HSP27 Disrupting Agents in Glioblastoma” (J Med Chem, 2023) come the findings set out here.

Calls of active or inactive are those of the source. No cut-off for these calls is given here.

Data set [1] relates to U-87 MG. Briefly: Growth inhibition of AR-overexpressing human U87 cells measured after 48 hrs by MTT assay. In kind it is functional, cell-based, U-87MG ATCC. (Tetrazolium assays rely on reduction of a dye to a coloured formazan, in cell work by metabolically active cells.)
The test system of data set [2] is T98G. Briefly: Growth inhibition of AR-overexpressing human T98G cells measured after 48 hrs by MTT assay. In kind it is functional, cell-based.
Data set [3] has as its system T98G. Briefly: Down regulation of androgen receptor activity in AR-overexpressing human T98G cells at 100 nM measured after 12 hrs by Western blotting analysis. In kind it is functional, cell-based. In general terms: A western blot detects proteins with antibodies after separation by electrophoresis.
Data set [4] in a line: Apparent half life in mouse plasma at 20 mg/kg, ip measured for 24 hrs by LC-MS/MS analysis. It counts as ADME, organism-based. The following applies: plasma.

The term IC50 denotes the midpoint of a concentration-inhibition curve. Read a high IC50 as weaker potency. Take `COc1ccc(OC)c(COc2cc(NC(=O)c3cccc(C(F)(F)F)c3)ccc2NS(C)(=O)=O)c1`: the values for the IC50 in data set [1] and in data set [2] were 998 nM and 423 nM, respectively.

As to `COc1ccc(OC)c(COc2cc(NC(=O)c3ccc(N)cc3)ccc2NS(C)(=O)=O)c1`, the IC50 was found to be 2060 nM in data set [1] and 3610 nM in data set [2].

Regarding `COc1ccc(OC)c(COc2cc(NC(=O)c3ccc(C)cc3)ccc2NS(C)(=O)=O)c1`, the IC50 in data set [1] came out at 91 nM; in data set [2] it was 213 nM.

For `CCc1ccc(C(=O)Nc2ccc(NS(C)(=O)=O)c(OCc3cc(OC)ccc3OC)c2)cc1`, the IC50 came to 1870 nM in data set [1] and 3850 nM in data set [2].

Regarding `COc1ccc(OC)c(COc2cc(NC(=O)c3cc(Cl)cc(Cl)c3)ccc2NS(C)(=O)=O)c1`, the IC50 in data set [1] was found to be 150 nM; in data set [2] it was 97 nM.

`COc1ccc(OC)c(COc2cc(NC(=O)COCC(=O)Nc3ccc(NS(C)(=O)=O)c(OCc4cc(OC)ccc4OC)c3)ccc2NS(C)(=O)=O)c1`: the IC50 in data set [1] and in data set [2] was over 10000 nM each time.

For `COc1ccc(OC)c(COc2cc(NC(=O)c3ccc([N+](=O)[O-])cc3)ccc2NS(C)(=O)=O)c1`, the result in data set [3] was Active. In addition, the IC50 in data set [1] is over 10000 nM; in data set [2], 1190 nM.

As to `COc1ccc(OC)c(COc2cc(NC(=O)c3ccc(C(F)(F)F)cc3C(F)(F)F)ccc2NS(C)(=O)=O)c1`, the figures for the IC50 in data set [1] and in data set [2] were 1710 nM and 2360 nM, respectively.

As for `COc1ccc(OC)c(COc2cc(NC(=O)c3ccc(Br)cc3)ccc2NS(C)(=O)=O)c1`, the IC50 in data set [1] was 155 nM; in data set [2], 148 nM.

Regarding `COc1ccc(OC)c(COc2cc(NC(=O)c3ccc(NC(=O)COCC(=O)Nc4ccc(C(=O)Nc5ccc(NS(C)(=O)=O)c(OCc6cc(OC)ccc6OC)c5)cc4)cc3)ccc2NS(C)(=O)=O)c1`, the IC50 in data set [1] and in data set [2] was over 10000 nM each time.

Consider `COc1ccc(OC)c(COc2cc(NC(=O)OCCOCCOCCOC(=O)Nc3ccc(NS(C)(=O)=O)c(OCc4cc(OC)ccc4OC)c3)ccc2NS(C)(=O)=O)c1`, for which the IC50 in data set [1] was over 10000 nM; in data set [2], 5470 nM.

For the compound `COc1ccc(OC)c(COc2cc(NC(=O)c3cccc(Cl)c3)ccc2NS(C)(=O)=O)c1`, the IC50 in data set [1] is over 10000 nM; in data set [2], 65 nM.

Consider `COc1ccc(OC)c(COc2cc(NC(=O)c3ccc(Cl)c(Cl)c3)ccc2NS(C)(=O)=O)c1`, for which the IC50 in data set [1] came to 476 nM; in data set [2] it was 2380 nM.

Take `COc1ccc(OC)c(COc2cc(NC(=O)c3cccc(C)c3)ccc2NS(C)(=O)=O)c1`: the IC50 in data set [1] is over 10000 nM; in data set [2] it was 422 nM.

Turning to `COc1ccc(OC)c(COc2cc(NC(=O)c3ccc(N(C)C)cc3)ccc2NS(C)(=O)=O)c1`, the IC50 in data set [1] was over 10000 nM; in data set [2], 1910 nM.

With `COc1ccc(OC)c(COc2cc(NC(=O)c3cccc(Br)c3)ccc2NS(C)(=O)=O)c1`, in data set [3], the outcome was Active. The IC50 in data set [1] is 530 nM; in data set [2], 2670 nM.

`COc1ccc(OC)c(COc2cc(NC(=O)c3ccccc3C)ccc2NS(C)(=O)=O)c1`: the outcome in data set [3] was Active. Further, the IC50 in data set [1] was found to be 1190 nM; in data set [2], 306 nM.

With `COc1ccc(OC)c(COc2cc(NC(=O)c3ccc(SC)cc3)ccc2NS(C)(=O)=O)c1`, the outcome in data set [3] was Active. Also, the results for the IC50 in data set [1] and in data set [2] were 92 nM and 29 nM, respectively.

For `COc1ccc(OC)c(COc2cc(NC(=O)c3ccc(OC(F)(F)F)cc3)ccc2NS(C)(=O)=O)c1`, in data set [3], the outcome was Active. Further, the half-maximal inhibitory concentration (IC50) in data set [1] stood at 2490 nM; in data set [2], 899 nM.

On to `COc1cccc(C(=O)Nc2ccc(NS(C)(=O)=O)c(OCc3cc(OC)ccc3OC)c2)c1`, for which the figures for the IC50 in data set [1] and in data set [2] were 8310 nM and 220 nM, respectively.

Consider `COc1ccc(OC)c(COc2cc(NC(=O)c3cccc([N+](=O)[O-])c3)ccc2NS(C)(=O)=O)c1`, for which the IC50 in data set [1] came to 2040 nM; in data set [2] it was 5070 nM.

As to `COc1ccc(OC)c(COc2cc(NC(=O)c3ccc(C(F)(F)F)c(F)c3)ccc2NS(C)(=O)=O)c1`, the IC50 came to 1500 nM in data set [1] and 4770 nM in data set [2].

In the case of `CCOc1cccc(C(=O)Nc2ccc(NS(C)(=O)=O)c(OCc3cc(OC)ccc3OC)c2)c1`, the IC50 in data set [1] is 3830 nM; in data set [2], 38.4 nM.

For the compound `COc1ccc(OC)c(COc2cc(NC(=O)c3ccc(Cl)cc3)ccc2NS(C)(=O)=O)c1`, the IC50 in data set [1] turned out to be 208 nM; in data set [2], 77 nM.

For the compound `COc1ccc(OC)c(COc2cc(NC(=O)c3ccc(C(F)(F)F)cc3)ccc2NS(C)(=O)=O)c1`, the IC50 is 2080 nM in data set [1] and over 10000 nM in data set [2].

As for `COc1ccc(OC)c(COc2cc(NC(=O)c3ccc(Cl)c([N+](=O)[O-])c3)ccc2NS(C)(=O)=O)c1`, the IC50 in data set [1] was over 10000 nM; in data set [2], 570 nM.

For the compound `COc1ccc(OC)c(COc2cc(NC(=O)c3ccc(-c4ccccc4)cc3)ccc2NS(C)(=O)=O)c1`, the IC50 stood at 6910 nM in data set [1] and 455 nM in data set [2].

`COc1ccc(OC)c(COc2cc(NC(=O)c3ccno3)ccc2NS(C)(=O)=O)c1`: the result in data set [3] was Active. The IC50 in data set [1] is over 10000 nM; in data set [2], 3960 nM.

In the case of `COc1ccc(OC)c(COc2cc(NC(=O)c3ccc(OC)c(OC)c3)ccc2NS(C)(=O)=O)c1`, the values for the IC50 in data set [1] and in data set [2] were 220 nM and 90 nM, respectively.

`COc1ccc(OC)c(COc2cc(NC(=O)c3cccc(I)c3)ccc2NS(C)(=O)=O)c1`: the IC50 in data set [1] was determined as 210 nM; in data set [2], 130 nM.

For the compound `COc1ccc(OC)c(COc2cc(NC(=O)c3cc(OC)c(OC)c(OC)c3)ccc2NS(C)(=O)=O)c1`, the IC50 in data set [1] stood at 3370 nM; in data set [2], 218 nM.

With `CCCCCC(=O)Nc1ccc(NS(C)(=O)=O)c(OCc2cc(OC)ccc2OC)c1`, the IC50 in data set [1] is 2040 nM; in data set [2], 1190 nM.

For `COc1ccc(OC)c(COc2cc(NC(=O)c3cccc(C#N)c3)ccc2NS(C)(=O)=O)c1`, the IC50 came out at 1890 nM in data set [1] and 5030 nM in data set [2].

With `COc1ccc(OC)c(COc2cc(NC(=O)c3cc(C(F)(F)F)cc(C(F)(F)F)c3)ccc2NS(C)(=O)=O)c1`, the values for the IC50 in data set [1] and in data set [2] were 2650 nM and 1040 nM, respectively.

Take `COc1ccc(OC)c(COc2cc(NC(=O)c3ccc(C)c([N+](=O)[O-])c3)ccc2NS(C)(=O)=O)c1`: the IC50 in data set [1] is 2630 nM; in data set [2], 3690 nM.

`COc1ccc(OC)c(COc2cc(NC(=O)c3ccc(C#N)cc3)ccc2NS(C)(=O)=O)c1`: the IC50 in data set [1] came to 2880 nM; in data set [2], 790 nM.

In the case of `COc1ccc(OC)c(COc2cc(NC(=O)OCCOC(=O)Nc3ccc(NS(C)(=O)=O)c(OCc4cc(OC)ccc4OC)c3)ccc2NS(C)(=O)=O)c1`, the values for the IC50 in data set [1] and in data set [2] were 5230 nM and 2280 nM, respectively.

Consider `COc1ccc(OC)c(COc2cc(NC(=O)c3cccs3)ccc2NS(C)(=O)=O)c1`, for which, in data set [3], the result was Active. For the same compound, the values for the IC50 in data set [1] and in data set [2] were over 10000 nM and 3430 nM, respectively.

Turning to `COc1ccc(OC)c(COc2cc(NC(=O)CCCC(=O)Nc3ccc(NS(C)(=O)=O)c(OCc4cc(OC)ccc4OC)c3)ccc2NS(C)(=O)=O)c1`, the result in data set [3] was Active. The IC50 in data set [1] and in data set [2] was over 10000 nM in each case.

Turning to `COc1ccc(OC)c(COc2cc(NC(=O)c3ccc(I)cc3)ccc2NS(C)(=O)=O)c1`, the values for the IC50 in data set [1] and in data set [2] were 46 nM and 48 nM, respectively.

As a reminder, the half-life is the time in which the quantity being followed falls by half. For the compound `COc1ccc(C(=O)Nc2ccc(NS(C)(=O)=O)c(OCc3cc(OC)ccc3OC)c2)cc1`, the half-life in data set [4] was 1.5 h.
